Experimental findings from patent US12612388B2, “Receptor-interacting protein 1 inhibitors including piperazine heterocyclic amide ureas” (SIRONAX LTD., priority 2020, dated 2026) are described below.

This test relates to HT-29 cells. Put plainly: Cellular RIP1 inhibitory activity: necroptosis of HT-29 cells induced by TNF-α/SMAC mimetic/zVAD-FMK, CellTiter-Glo viability. The test is classed as cell-based. The settings on record: Homo sapiens; HT-29 cells; TNF-α 10 ng/ml, SMAC mimetic 6 μM, zVAD-FMK 10 μM; 20 hours; geometric mean, 10 points, duplicates; read-out: EC50 (Cell activity; Necrosis or Necroptosis Inhibitory Activity). The method, then:
In Table 2, activity is provided as follows: +++=0.1 nM≤EC50<100 nM; ++=100 nM≤EC50K<1000 nM; +=1000 nM≤EC50K<10000 nM.
Compounds 1-67 (denoted as Compound Nos. 1 through 67 in Table 1) of the disclosure were tested for binding and cellular RIP1 inhibitory activity following the experimental procedures described below.
Cell line: HT-29 (ATCC® HTB-38™)
Culture medium: McCOY's 5A, Gibco, Cat No. 16600-082
DMSO: Sigma, Cat No. 67-68-5, 1 L
Assay plate: Corning #3903
Compound dilution plate: Corning #3357
Inducers: TNFα, GenScript, Cat No. Z01001-50,
SmacM, Cat. No., HY-15989, MedChemExpress (MCE)
Z_VAD FMK, TargetMol, T6013
Cell Titer-Glo® Luminescent Cell Viability Assay Kit: Promega, Cat No. G7573
1. HT-29 cells were checked every day to make sure that they were healthy and growing as expected. They were subjected to sub-culturing when they were approximately 80% confluent.
2. The culture medium, McCOY's 5A medium (Gibco, Cat No. 16600-082) with 10% fetal bovine serum or FBS (Gibco, Cat No. 10099-141C), was pre-warmed in a 37° C. water bath for at least 30 min.
3. When the cells had reached a desired level of confluency of 80% in a T75 flask, the medium was aspirated, and the cells were washed with warm phosphate buffered saline or PBS two times.
4. 2-3 ml fresh warm trypsin (Gibco, Cat No. 25200-056) solution was added to the washed cells. The flask with the cells was transferred to a 37° C. incubator.
5. After 5 minutes, the side of the flask was tapped, and the flask was examined under a microscope for detachment of the cells to the flask. If necessary, the cells were kept in the incubator for an additional 5-10 minutes, with occasional tapping, until lifting was complete.
6. The trypsin reaction was neutralized by transferring 6-9 ml cell culture medium to sterile 15 ml conical tubes, and by centrifuging the cell culture at 300×g for 7 minutes to pellet the cells (supernatant decanted).
7. The cells were resuspended in fresh cell culture medium and the cell counting was performed using a hemocytometer.
8. 100 μl of the resuspended cell culture medium containing ˜5,000 cells were transferred into each well of the sterile 96-well cell culture plate (Corning 3903) and cultured overnight at 37° C. with 5% CO2.
Compound Titration and Treatment
1. All test compounds were dissolved in DMSO (Dimethyl sulfoxide) to create a 20 mM stock.
2. 3 μl of each compound 20 mM stock was mixed with 27 μl DMSO, and the compound solution was further diluted at a titration ratio of 1:3 (20 μl compound solution+40 μl DMSO) till the 10 points end.
3. All culture medium was removed from assay plates filled with HT-29 cell cultures. The cells were then washed with 1 PBS, and resuspended in fresh, FBS-free McCOY's 5A medium containing a cocktail of TNF-α (10 ng/ml), a SMAC mimetic compound (6 μM) and Z-VAD-fluoromethylketone or zVAD-FMK (10 μM) to stimulate the HT-29 cells to increase RIP1 kinase levels and necroptosis.
4. 0.5 μL of the diluted compound solution was added to the corresponding 96-well assay plates.
5. The assay plates were incubated for 20 hours at 37° C. with 5% CO2.
1. The CellTiter-Glo® Luminescent Cell Viability Assay was employed to detect the ATP levels of viable HT-29 cells.
2. The CellTiter-Glo® buffer and the lyophilized substrate were equilibrated to room temperature prior to use.
3. The CellTiter-Glo® substrate was resuspended with CellTiter-Glo® buffer, then mixed by gently vortexing to obtain a homogeneous solution.
4. 20 μl the enzyme/substrate mixture was transferred by multi-channel pipetting into 96-well assay plates.
5. The assay plates were placed on an orbital shaker and the contents were shaken for 3 minutes to induce cell lysis.
6. The assay plates were incubated at room temperature for 10 minutes to stabilize the luminescent signal.
7. The luminescence signals were read and recorded with EnVision.
8. The geometric mean EC50 values were calculated from 10 points response dose with duplicates. […]
In the case of `NC(=O)c1cncc(N2CCN(C(=O)N3N=CC[C@H]3c3cc(F)cc(F)c3)CC2)n1` [Compound 39, (S)-6-(4-(5-(3,5-difluorophenyl)-4,5-dihydro-1H-pyrazole-1-carbonyl)piperazin-1-yl)pyrazine-2-carboxamide], the EC50 was in the range of 100 to 1000 nM.
Then `NC(=O)c1cc(N2CCN(C(=O)N3N=CC[C@H]3c3cc(F)cc(F)c3)CC2)ncn1` [Compound 40, (S)-6-(4-(5-(3,5-difluorophenyl)-4,5-dihydro-1H-pyrazole-1-carbonyl)piperazin-1-yl)pyrimidine-4-carboxamide], with 0.1 to 100 nM; and `NC(=O)c1ccnc(N2CCN(C(=O)N3N=CC[C@H]3c3ccccc3)CC2)n1` [Compound 41, (S)-2-(4-(5-phenyl-4,5-dihydro-1H-pyrazole-1-carbonyl)piperazin-1-yl)pyrimidine-4-carboxamide], with 0.1 to 100 nM.
With `N#Cc1cc(F)cc([C@@H]2CC=NN2C(=O)N2CCN(c3nccc(C(N)=O)n3)CC2)c1` [Compound 42, (S)-2-(4-(5-(3-cyano-5-fluorophenyl)-4,5-dihydro-1H-pyrazole-1-carbonyl)piperazin-1-yl)pyrimidine-4-carboxamide], the EC50 is 0.1 to 100 nM.
In the case of `N#Cc1cncc([C@@H]2CC=NN2C(=O)N2CCN(c3nccc(C(N)=O)n3)CC2)c1` [Compound 43, (S)-2-(4-(5-(5-cyanopyridin-3-yl)-4,5-dihydro-1H-pyrazole-1-carbonyl)piperazin-1-yl)pyrimidine-4-carboxamide] it was 100 to 1000 nM.
Then `O=C(O)c1ccnc(N2CCN(C(=O)N3N=CC[C@H]3c3cc(F)cc(F)c3)CC2)n1` [Compound 44, (S)-2-(4-(5-(3,5-difluorophenyl)-4,5-dihydro-1H-pyrazole-1-carbonyl)piperazin-1-yl)pyrimidine-4-carboxylic acid], with 1000 to 10000 nM.
Then `O=C(NCCN1CCOCC1)c1ccnc(N2CCN(C(=O)N3N=CC[C@H]3c3cc(F)cc(F)c3)CC2)n1` [Compound 45, (S)-2-(4-(5-(3,5-difluorophenyl)-4,5-dihydro-1H-pyrazole-1-carbonyl)piperazin-1-yl)-N-(2-morpholinoethyl)pyrimidine-4-carboxamide], with 100 to 1000 nM; and `CNC(=O)c1ccnc(N2CCN(C(=O)N3N=CC[C@H]3c3cc(F)cc(F)c3)CC2)n1` [Compound 46, (S)-2-(4-(5-(3,5-difluorophenyl)-4,5-dihydro-1H-pyrazole-1-carbonyl)piperazin-1-yl)-N-methylpyrimidine-4-carboxamide], with 0.1 to 100 nM.
Turning to `CCOC(=O)c1nc(N2CCN(C(=O)N3N=CC[C@H]3c3cc(F)cc(F)c3)CC2)ncc1F` [Compound 47], the half-maximal effective concentration (EC50) was in the range of 0.1 to 100 nM.
Take `NC(=O)c1nc(N2CCN(C(=O)N3N=CC[C@H]3c3cc(F)cc(F)c3)CC2)ncc1F` [Compound 48, (S)-2-(4-(5-(3,5-difluorophenyl)-4,5-dihydro-1H-pyrazole-1-carbonyl)piperazin-1-yl)-5-fluoropyrimidine-4-carboxamide]: the EC50 lay in the range of 0.1 to 100 nM.
In the case of `COC(=O)c1ccnc(N2CCN(C(=O)N3N=CC[C@H]3c3cc(F)cc(F)c3)CC2)n1` [Compound 49, methyl (S)-2-(4-(5-(3,5-difluorophenyl)-4,5-dihydro-1H-pyrazole-1-carbonyl)piperazin-1-yl)pyrimidine-4-carboxylate], the EC50 fell in the range of 0.1 to 100 nM.
In the case of `CC1(O)CN(C(=O)c2nc(N3CCN(C(=O)N4N=CC[C@H]4c4cc(F)cc(F)c4)CC3)ncc2F)C1` [Compound 50, (S)-(5-(3,5-difluorophenyl)-4,5-dihydro-1H-pyrazol-1-yl)(4-(5-fluoro-4-(3-hydroxy-3-methylazetidine-1-carbonyl)pyrimidin-2-yl)piperazin-1-yl)methanone] it was 0.1 to 100 nM.
Consider `COC1CN(C(=O)c2nc(N3CCN(C(=O)N4N=CC[C@H]4c4cc(F)cc(C#N)c4)CC3)ncc2F)C1` [Compound 51, (S)-3-fluoro-5-(1-(4-(5-fluoro-4-(3-methoxyazetidine-1-carbonyl)pyrimidin-2-yl)piperazine-1-carbonyl)-4,5-dihydro-1H-pyrazol-5-yl)benzonitrile], for which the EC50 lay in the range of 0.1 to 100 nM.
For `COC1CN(C(=O)c2nc(N3CCN(C(=O)N4N=CC[C@H]4c4cncc(F)c4)CC3)ncc2F)C1` [Compound 52, (S)-(5-fluoro-2-(4-(5-(5-fluoropyridin-3-yl)-4,5-dihydro-1H-pyrazole-1-carbonyl)piperazin-1-yl)pyrimidin-4-yl)(3-methoxyazetidin-1-yl)methanone], the half-maximal effective concentration (EC50) was in the range of 0.1 to 100 nM.
In the case of `COC1CN(C(=O)c2nc(N3CCN(C(=O)N4N=CC[C@H]4c4cncc(C#N)c4)CC3)ncc2F)C1` [Compound 53, (S)-5-(1-(4-(5-fluoro-4-(3-methoxyazetidine-1-carbonyl)pyrimidin-2-yl)piperazine-1-carbonyl)-4,5-dihydro-1H-pyrazol-5-yl)nicotinonitrile] it was 0.1 to 100 nM; in that of `N#Cc1cc(F)cc([C@@H]2CC=NN2C(=O)N2CCN(c3ncc(F)c(C(=O)N4CC(C#N)C4)n3)CC2)c1` [Compound 54, (S)-1-(2-(4-(5-(3-cyano-5-fluorophenyl)-4,5-dihydro-1H-pyrazole-1-carbonyl)piperazin-1-yl)-5-fluoropyrimidine-4-carbonyl)azetidine-3-carbonitrile], 0.1 to 100 nM.
For the molecule `C=C1CN(C(=O)c2nc(N3CCN(C(=O)N4N=CC[C@H]4c4cc(F)cc(F)c4)CC3)ncc2F)C1` [Compound 55, (S)-(5-(3,5-difluorophenyl)-4,5-dihydro-1H-pyrazol-1-yl)(4-(5-fluoro-4-(3-methyleneazetidine-1-carbonyl)pyrimidin-2-yl)piperazin-1-yl)methanone], the EC50 was in the range of 0.1 to 100 nM.
Then `CC1CN(C(=O)c2nc(N3CCN(C(=O)N4N=CC[C@H]4c4cc(F)cc(F)c4)CC3)ncc2F)C1` [Compound 56, (S)-(5-(3,5-difluorophenyl)-4,5-dihydro-1H-pyrazol-1-yl)(4-(5-fluoro-4-(3-methylazetidine-1-carbonyl)pyrimidin-2-yl)piperazin-1-yl)methanone], with 0.1 to 100 nM; and `N#CC=C1CN(C(=O)c2nc(N3CCN(C(=O)N4N=CC[C@H]4c4cc(F)cc(F)c4)CC3)ncc2F)C1` [Compound 57, (S)-2-(1-(2-(4-(5-(3,5-difluorophenyl)-4,5-dihydro-1H-pyrazole-1-carbonyl)piperazin-1-yl)-5-fluoropyrimidine-4-carbonyl)azetidin-3-ylidene)acetonitrile], with 0.1 to 100 nM; and `N#CCC1CN(C(=O)c2nc(N3CCN(C(=O)N4N=CC[C@H]4c4cc(F)cc(F)c4)CC3)ncc2F)C1` [Compound 58, (S)-2-(1-(2-(4-(5-(3,5-difluorophenyl)-4,5-dihydro-1H-pyrazole-1-carbonyl)piperazin-1-yl)-5-fluoropyrimidine-4-carbonyl)azetidin-3-yl)acetonitrile], with 0.1 to 100 nM.
As to `N#Cc1cc(F)cc([C@@H]2CC=NN2C(=O)N2CCN(c3ncc(F)c(C(=O)N4CC(OCC5CC5)C4)n3)CC2)c1` [Compound 59, (S)-3-(1-(4-(4-(3-(cyclopropylmethoxy)azetidine-1-carbonyl)-5-fluoropyrimidin-2-yl)piperazine-1-carbonyl)-4,5-dihydro-1H-pyrazol-5-yl)-5-fluorobenzo nitrile], the half-maximal effective concentration (EC50) is 0.1 to 100 nM.
